This is an account of results in US9783510B2, “Small molecule mediated transcriptional induction of E-cadherin” (Vanderbilt University, priority 2014, dated 2017).

In experiment [1] the test system is E-cadherin expression in SW620 cells. Nature of the experiment: E-cadherin expression, in-cell Western (ICW), SW620 cells. As to conditions: for fold induction at 10 µM: SW-620, 24 h; for EC50: inducement of E-cadherin expression in SW620 cells. The format is cell-based. The method, boiled down:
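SW620 cells were treated with compound for 24 h in RPMI 1640 (single-point at 10 μM; EC50 also determined), in quadruplicate. After methanol fixation, in-cell Western with anti-E-cadherin and anti-α-tubulin primaries and IRDye 800/700 secondaries. Read on an Odyssey IR imager.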

Experiment [2] relates to E-cadherin expression in H520 cells. Kind of experiment: E-cadherin expression, in-cell Western (ICW), H520 cells. The format is cell-based. As to conditions: Homo sapiens, NCI-H520; for fold induction at 10 µM: change in expression level of E-cadherin in response to 10 μM compound, 24 hours, H520 cells; for EC50: inducement of E-cadherin expression in H520 cells. As for the experimental part: SW620 and H520 cells (5×10^4/100 μL) were seeded in a 96-well plate prior to treatment. Cells were treated with 10 μM concentration of synthesized compound in quadruplicate for 24 hours in RPMI 1640 supplemented medium and 100 μg/mL penicillin-streptomycin. The cells were then fixed with 100% methanol for 20 minutes at 4° C. The wells were then washed 2 times with PBS, permeabilized in 2% bovine serum albumin (BSA) and 0.2% TritonX-100 in PBS for 30 minutes at room temperature with gentle agitation, and blocked in LI-COR blocking buffer for 30 minutes at room temperature with gentle agitation. The cells were then incubated with the following primary antibodies: anti-E-Cadherin (1:500) and anti-α-Tubulin (1:1000) diluted in blocking buffer (1:1 dilution in PBS) for 2 hours at room temperature with gentle agitation. The cells were washed 4 times in PBS-T for 5 minutes each, and then incubated with the following secondary antibodies conjugated to a fluorescent entity: IRDye 800-conjugated goat anti-rabbit IgG (1:1000) and IRDye-700-conjugated goat anti-mouse IgG (1:2000) in blocking buffer (1:1 dilution in PBS) with gentle agitation for 1 h at room temperature. The cells were washed 4 times in PBS-T for 5 minutes each followed by a single wash with PBS. All liquid was removed from the wells and the plates were visualized and analyzed on the Odyssey IR imaging system (LI-COR Biosciences).
The assay was further optimized in the following manner. The cells were washed 2 times with PBS, fixed in 100% methanol at room temperature for 15 minutes, and again washed 2 times with PBS. The cells were then incubated with the following primary antibodies: anti-E-Cadherin (1:200) and anti-α-Tubulin (1:2000) diluted in ice cold 2% bovine serum albumin (BSA) and 0.2% TritonX-100 in PBS for 1 hour at room temperature with gentle agitation. The cells were washed 2 times in PBS and then incubated with the following secondary antibodies conjugated to a fluorescent entity: Licor 800-conjugated goat anti-rabbit IgG (1:2000) and IRDye-700-conjugated goat anti-mouse IgG (1:2000) in ice cold 2% BSA and 0.2% TritonX-100 in PBS with gentle agitation for 45 minutes at room temperature. The wells were washed 2 times in PBS, dried, and analyzed as previously mentioned.
Changes in expression level of E-cadherin in response to 10 μM compound in H520 cells was determined in a cell-based functional assay as described above, and the data are shown in Table IV. The compound number corresponds to the compound numbers used in Table II.
EC50 of inducement of E-cadherin expression in H520 cells was determined in a cell-based functional assay as described above, and the data are shown in Table VI. The compound number corresponds to the compound numbers used in Table II.

Another experiment deals with HMEC-1 cells. Kind of experiment: E-cadherin, VE-cadherin, Vimentin and histone marks in HMEC-1 cells (qPCR, Western blot). The format is cell-based, human. As to conditions: after 48 hours of treatment. (In general: Quantitative PCR measures a nucleic acid by following its amplification.)
The subject of experiment [3] is proximal region of the E-cadherin promoter (Cdh1) in SW620inv cells. Kind of experiment: ChIP assay at proximal E-cadherin promoter, SW620inv cells. The experiment is classed as cell-based. As to conditions: ChIP (FIG. 8).
Setting [4] is: Homo sapiens, change in expression level of E-cadherin in response to 10 μM compound, 24 hours, SW620 cells.

On to `O=C(Cc1ccccc1O)NCCNC(=O)c1cc(-c2ccccc2)on1` [Compound 1, N-(2-(2-(2-hydroxyphenyl)acetamido)ethyl)-5-phenylisoxazole-3-carboxamide], for which the values for the fold induction at 10 µM in experiment [1] (setting [4]) and in experiment [2] were 3.4 and 3.51, respectively. The EC50 in experiment [1] (Homo sapiens, SW-620) amounted to 3.7 µM; in experiment [2], 5.6 µM.

Consider `O=C(NCCNC(=O)c1cc(Br)ccc1O)c1cc(-c2ccccc2)on1` [Compound 2, N-(2-(5-bromo-2-hydroxybenzamido)ethyl)-5-phenylisoxazole-3-carboxamide], for which the fold induction at 10 µM stood at 1.18 in experiment [1] (setting [4]) and 1.14 in experiment [2].

For the compound `O=C(NCCNC(=O)c1cc(-c2ccccc2)on1)c1ccncc1` [Compound 4, N-(2-(isonicotinamido)ethyl)-5-phenylisoxazole-3-carboxamide], the fold induction at 10 µM in experiment [1] (setting [4]) was 2.79; in experiment [2], 2.87. The EC50 in experiment [1] (Homo sapiens, SW-620) was 8.8 µM; in experiment [2] it was 5.1 µM.

Consider `O=C(NCCNC(=O)c1nccs1)c1cc(-c2ccccc2)on1` [Compound 5, 5-phenyl-N-(2-(thiazole-2-carboxamido)ethyl)isoxazole-3-carboxamide], for which the fold induction at 10 µM was 8.98 in experiment [1] (setting [4]) and 4.22 in experiment [2]. Further, the midpoint of the response in experiment [1] (Homo sapiens, SW-620), the EC50, lay at 4.8 µM.

Turning to `Nc1ncn([C@@H]2O[C@H](CO)[C@@H](O)[C@H]2O)c(=O)n1` [Compound 5-Aza, 5-azacytidine], the “restoring E-cadherin in HMEC-1 cells” value with HMEC-1 cells is on record as “neither TSA nor 5-Aza, nor the combination of these two agents, was effective”.

For the compound `O=C(NCCCNC(=O)c1cc(F)ccc1O)c1cc(-c2ccccc2)on1` [Compound 20, N-(3-(5-fluoro-2-hydroxybenzamido)propyl)-5-phenylisoxazole-3-carboxamide], the fold induction at 10 µM turned out to be 2.43 in experiment [1] (setting [4]) and 5.27 in experiment [2]. Moreover, the EC50 came to 5 µM in experiment [1] (Homo sapiens, SW-620) and 1.4 µM in experiment [2].

As to `O=C(Cc1ccccc1O)NCCCNC(=O)c1cc(-c2ccccc2)on1` [Compound 21, N-(3-(2-(2-hydroxyphenyl)acetamido)propyl)-5-phenylisoxazole-3-carboxamide], the fold induction at 10 µM in experiment [1] (setting [4]) turned out to be 4.92; in experiment [2], 5.92. The EC50 was 4.97 µM in experiment [1] (Homo sapiens, SW-620) and 1.5 µM in experiment [2].

For the compound `O=C(NCCCNC(=O)c1n[nH]c2ccccc12)c1cc(-c2ccccc2)on1` [Compound 22, N-(3-(1H-indazole-3-carboxamido)propyl)-5-phenylisoxazole-3-carboxamide], the fold induction at 10 µM came to 1.62 in experiment [1] (setting [4]) and 1.88 in experiment [2].

On to `O=C(NCCCNC(=O)c1nc2ncccn2n1)c1cc(-c2cccs2)on1` [Compound 108, N-(3-([1,2,4]triazolo[1,5-a]pyrimidine-2-carboxamido)propyl)-5-(thiophen-2-yl)isoxazole-3-carboxamide], for which the fold induction at 10 µM in experiment [1] (setting [4]) came out at 2.45.

With `Cc1cc(C)c(C(=O)NCCCNC(=O)c2cc(-c3cccs3)on2)o1` [Compound 110, N-(3-(3,5-dimethylfuran-2-carboxamido)propyl)-5-(thiophen-2-yl)isoxazole-3-carboxamide], the fold induction at 10 µM in experiment [1] (setting [4]) came out at 3.74.

On to `Cc1cncc(C(=O)NCCCNC(=O)c2cc(-c3ccccc3)on2)n1` [Compound 111, N-(3-(6-methylpyrazine-2-carboxamido)propyl)-5-phenylisoxazole-3-carboxamide], for which the fold induction at 10 µM in experiment [1] (setting [4]) was 4.13. In experiment [1] (Homo sapiens, SW-620), this compound gave an EC50 of 7.2 µM.

In experiment [1] (setting [4]), `CC(C)(C)c1ccc(C(=O)NCCCNC(=O)c2cc(-c3ccccc3)on2)o1` [Compound 112, N-(3-(5-(tert-butyl)furan-2-carboxamido)propyl)-5-phenylisoxazole-3-carboxamide] returned a fold induction at 10 µM of 3.86.

In turn, `O=C(NCCCNC(=O)c1occc1-c1ccccc1)c1cc(-c2ccccc2)on1` [Compound 114, 5-phenyl-N-(3-(3-phenylfuran-2-carboxamido)propyl)isoxazole-3-carboxamide] displayed a fold induction at 10 µM in experiment [1] (setting [4]) of 4.7. In experiment [1] (Homo sapiens, SW-620), the EC50 was 6.35 µM.

With `CCc1ccc(C(=O)NCCCNC(=O)c2cc(-c3ccccc3)on2)o1` [Compound 115, N-(3-(5-ethylfuran-2-carboxamido)propyl)-5-phenylisoxazole-3-carboxamide], the fold induction at 10 µM in experiment [1] (setting [4]) amounted to 3.83.

Consider `Cn1cnc(C(=O)NCCCNC(=O)c2cc(-c3ccccc3)on2)c1` [Compound 116, N-(3-(1-methyl-1H-imidazole-4-carboxamido)propyl)-5-phenylisoxazole-3-carboxamide], for which the fold induction at 10 µM in experiment [1] (setting [4]) was 2.6.

Consider `O=C(NCCCNC(=O)c1cnn[nH]1)c1cc(-c2ccccc2)on1` [Compound 117, N-(3-(1H-1,2,3-triazole-5-carboxamido)propyl)-5-phenylisoxazole-3-carboxamide], for which the fold induction at 10 µM in experiment [1] (setting [4]) came out at 3.71.

For `Nc1cncc(C(=O)NCCCNC(=O)c2cc(-c3ccccc3)on2)n1` [Compound 118, N-(3-(6-aminopyrazine-2-carboxamido)propyl)-5-phenylisoxazole-3-carboxamide], the fold induction at 10 µM in experiment [1] (setting [4]) was found to be 4.38. Moreover, the EC50 in experiment [1] (Homo sapiens, SW-620) amounted to 5.45 µM.

With `O=C(NCCCNC(=O)c1cc(-c2ccccc2)on1)c1cc(-c2ccccc2)ccn1` [Compound 119, 5-phenyl-N-(3-(4-phenylpicolinamido)propyl)isoxazole-3-carboxamide], the fold induction at 10 µM in experiment [1] (setting [4]) turned out to be 4.13. Besides, the EC50 in experiment [1] (Homo sapiens, SW-620) stood at 5.64 µM.

As for `O=C(NCCCNC(=O)c1cccc(C(F)(F)F)n1)c1cc(-c2ccccc2)on1` [Compound 120, 5-phenyl-N-(3-(6-(trifluoromethyl)picolinamido)propyl)isoxazole-3-carboxamide], the fold induction at 10 µM in experiment [1] (setting [4]) was determined as 3.08.

As to `O=C(NCCCNC(=O)C1CCCCO1)c1cc(-c2ccccc2)on1` (stereo not drawn) [Compound 121, 5-phenyl-N-(3-(tetrahydro-2H-pyran-2-carboxamido)propyl)isoxazole-3-carboxamide], the fold induction at 10 µM in experiment [1] (setting [4]) was 3.74.

As for `O=C(NCCNC(=O)c1cc(F)ccc1O)c1cc(-c2ccccc2)[nH]n1` [Compound 122, N-(2-(5-fluoro-2-hydroxybenzamido)ethyl)-5-phenyl-1H-pyrazole-3-carboxamide], the fold induction at 10 µM in experiment [1] (setting [4]) is 1.45; in experiment [2], 1.04.

As for `O=C(Cc1ccccc1O)NCCNC(=O)c1cc(-c2ccccc2)[nH]n1` [Compound 123, N-(2-(2-(2-hydroxyphenyl)acetamido)ethyl)-5-phenyl-1H-pyrazole-3-carboxamide], the values for the fold induction at 10 µM in experiment [1] (setting [4]) and in experiment [2] were 1.37 and 1.24, respectively.

Consider `O=C(NCCNC(=O)c1cc(-c2ccccc2)[nH]n1)c1ccncc1` [Compound 124, N-(2-(5-phenyl-1H-pyrazole-3-carboxamido)ethyl)isonicotinamide], for which the results for the fold induction at 10 µM in experiment [1] (setting [4]) and in experiment [2] were 1.29 and 1.22, respectively. The “Pol II association with the E-cadherin proximal promoter” value in experiment [3] is “did not show any effect”.

On to `O=C(NCCNC(=O)c1nccs1)c1cc(-c2ccccc2)[nH]n1` [Compound 125, N-(2-(5-phenyl-1H-pyrazole-3-carboxamido)ethyl)thiazole-2-carboxamide], for which the fold induction at 10 µM was 1.77 in experiment [1] (setting [4]) and 1.1 in experiment [2].

Consider “N-(3-(5-chlorofuran-2-carboxamido)propyl)-5-phenylisoxazole-3-carboxamide [Compound 113]”, for which, in experiment [1] (change in expression level of E-cadherin in response to 10 μM compound, 24 hours, SW620 cells), the “fold change SW620 ICW” value was 4.09 fold. Further, the EC50 in experiment [1] amounted to 4.59 µM.

What is called fold induction is the signal under treatment as a multiple of the control signal. A low value points to little rise in signal. In general, EC50 refers to the concentration giving half of the maximal effect. A high value points to weaker potency.
